Experimental data taken from US20260248794A1, “METHODS AND MATERIALS FOR PROMOTING BONE GROWTH” (Mayo Foundation for Medical Education and Research, priority 2022, published 2026).
Values joined by “and” are separate entries in the source; they are usually repeats but may differ in a detail not shown here. Equal values may be shown once. “Also recorded” adds a separate entry of the source.

Key:
H3K27me3 in MC3T3 cells = assay: Western blotting for H3K27me3 in MC3T3 cells treated with EED inhibitor; assay type: cell-based, murine; settings: A-395 at 0.02-10 mM as printed, FIG. 5A
Method: (§1) MC3T3 sc4 murine calvarial osteoblasts were purchased from American Type Culture Collection and maintained in α-minimal essential medium without ascorbic acid (Gibco) containing 10% fetal bovine serum (Atlanta Biologicals), 100 units/mL penicillin, and 100 µg/mL streptomycin (Gibco).
MC3T3 cells (4,000 cells/cm^2) were plated in 6-well plates in maintenance medium. […] Cells were lysed in radioimmunoprecipitation buffer (150 mm NaCl, 50 mm Tris, pH 7.4, 1% sodium deoxycholate, 0.1% sodium dodecyl sulfate, 1% Triton X-100) supplemented with protease inhibitor mixture (Sigma) and phenylmethylsulfonyl fluoride (Sigma). Lysates were cleared by centrifugation. Protein concentrations were determined by the DC Protein Assay (Bio-Rad). Proteins were resolved by SDS-PAGE and transferred to polyvinylidene difluoride membranes. After blocking in 5% nonfat dry milk for 45 minutes at room temperature, primary antibodies were added overnight at 4° C., followed by secondary antibodies for 1 hour at room temperature. Proteins were visualized using an ECL Prime detection kit.

MC3T3 cells = assay: Osteogenic differentiation of MC3T3 cells (RT-qPCR of osteogenic genes, alizarin red staining); assay type: cell-based, murine; settings: differentiating MC3T3 cells; FIG. 5B-5F
Method: as §1
For osteogenic differentiation, MC3T3s were seeded in respective maintenance medium at a density of 10,000 cells/cm^2. Next day, osteogenic medium supplemented with vehicle, GSK126 (Xcess Biociences Inc.) or A-395 (Sigma) was added to the cells. Osteogenic medium for MC3T3 cells consisted of 50 μg/mL ascorbic acid (Sigma) and 4 mm β-glycerol phosphate (Sigma). Three days later, old medium was replaced with a fresh batch of osteogenic medium supplemented with vehicle, GSK126, or A-395. On day 6 of differentiation, fresh osteogenic medium without supplements was added and replenished every 2 to 3 days. On day 14, cells were fixed in 10% neutral buffered formalin and stained with 2% alizarin red to visualize calcium deposition.
Total RNA was isolated using the Direct-zol™ RNA kit (Zymo Research) and quantified using the NanoDrop 2000 spectrophotometer (Thermo Fischer Scientific). RNA was then reverse transcribed into cDNA by the SuperScript III First-Strand Synthesis System (Invitrogen). Transcript levels were then measured using the 2^ΔΔct method and normalized GAPDH (set at 100), a housekeeping gene.

OI mice = assay: μCT analysis of femurs of OI mice treated with A-395 for 5 weeks; assay type: in vivo
Method: (§2) Five-week-old OI mice (mice harboring the Col1a2 c.2098G>T p.Gly700Cys allele […]) were subcutaneously injected with DMSO (vehicle) or EED inhibitor A-395 (Sigma) at concentrations of either 100 mg/kg or 300 mg/kg twice weekly for 5 weeks.
Femurs of injected mice were scanned by μCT Skyscan 1076 (Brunker) at the maximal potencial 60 kV and 167 μA with 0.25 mm thick aluminum filter and at the voxel resolution of 9 μm. The μCT scans were performed over 360° of total rotation with each angular rotation step of 0.7°. […] The trabecular region of interest were selected with reference to the growth plate. The 2D images were created using CTAn siftware package (Skyscan). The 3D μCT models of each femur were created using a 3D reconstruction software package (Skyscan).
(§3) 5-week-old OI mice were treated twice weekly with a subcutaneous injection of either vehicle (DMSO) or EED inhibitor A-395 had concentrations of 300 mg/kg or 100 mg/kg. These mice were treated for five weeks and then analyzed for changes in bone structure.

[1] = Weight, femur length and toxicity in OI mice treated with A-395 for 5 weeks; assay type: in vivo; settings: for Weigh at 3 weeks: 3 weeks of age, prior to treatment; for Weight at 5 weeks: start of treatment; for Weight at 10 weeks: individual OI mice
Method: as §2, §3
OI mice were weighed at 3 weeks of age prior to treatment, at the start of treatment at 5 weeks, and after 5 weeks of treatment with vehicle (Veh), 300 mg/kg (300), or 100 mg/kg (100) of A-395.

G610C mice [2] = assay: μCT analysis of G610C mice treated with A-395 for 3 weeks; assay type: in vivo; settings: male G610C mice
Method: (§4) G610C mice were treat with the EED inhibitor A-395. […] The dose of A-395 was lowered to see if that improved the health of the mice and bone formation. Three 5-week-old male G610C mice were treated with DMSO control or either 50 mg/kg or 100 mg/kg A-395 twice a week by subcutaneous injection for 3 weeks.

G610C mice [3] = assay: Three-point bending of G610C mice treated with A-395 for 3 weeks; assay type: in vivo; settings: male G610C mice
From the text: Three-point bend fixture was mounted on a servohydrauilic mechanical testing frame (#312, MTS Systems) instrumented with a 100-N capacity load cell (#3397-25, Leebow Products). Femurs were be mounted on supports spanning 8 mm. Point loading was applied to the femur mid-shaft allowing the bones to flex about an axis aligned with the medial-lateral line. Loading was applied under displacement control at a rate of 20 mm/minute until fracture. Force and displacement data were be sampled at 256 Hz. Peak load and peak displacement was be quantified. The stiffness was be calculated from the slope of the linear region of the force displacement curve.
as §4

G610C mice [4] = assay: μCT analysis of G610C mice treated with MAK683 for 3 weeks (three mice); assay type: in vivo; settings: for bone density / trabecular structure: G610C mice, vs vehicle treated control; for bone parameters (μCT) vs controls: male G610C mice, 3 weeks
Method: To determine if MAK683 improved bone formation in OI, three 5-week-old male G610C mice were injected SQ with 50 mg/kg MAK683 twice a week for 3 weeks.

OVX mice = assay: μCT analysis of OVX mice treated with MAK683; assay type: in vivo, C57BL/6 female mice
Method: To assess whether EED inhibition could rescue low bone mass due to osteoporosis, ovariectomy (OVX) or sham (Sham) surgery on was performed 15-week-old C57BL/6 female mice with 6 animals per group. On the day of surgery, all mice were imaged using a PIXImus densitometer to measure bone density prior to OVX. Mice were allowed 7 days to recover. Mice in each group were randomized to EED inhibitor treatment or control. These groups were sham/vehicle (Sh−), sham/EED (SH+), OVX/vehicle (OV−), and OVX/EED (OV+). Again, each mouse was imaged to determine bone density after OVX prior to EED treatment. Mice were then injected with vehicle control or 20 mg/kg MAK683 SQ twice weekly for 3 weeks.

G610C mice [5] = assay: μCT analysis of large cohort of G610C mice treated with MAK683; assay type: in vivo; settings: for bone density (μCT) / trabecular structure: G610C mice; for bone density (μCT): 3 weeks, 9 mice per group; for trabecular structure: vs vehicle treated control; for bone quality parameters: OI mice
Method: One day prior to treatment 5-week-old male G610C mice were weighed to determine dosing. MAK683 was dissolved in DMSO for each treatment arm of 5, 10, 20, or 50 mg/kg for selected mice. The volume was adjusted to […] for injection using corn oil. Mice were injected subcutaneously twice weekly for 3 weeks. After 3 weeks, mice were euthanized, and bone was harvested.
To further examine if different doses of MAK683 improved bone formation in 01, SQ nine 5-week-old male G610C mice were injected with 50, 20, 10, or 5 mg/kg MAK683 twice a week for 3 weeks.

[6] = 100 mg/kg, vs vehicle, 100 mg/kg
[7] = 300 mg/kg, vs vehicle, 300 mg/kg
[8] = individual OI mice of the 100 mg/kg group, in g (unit assumed)
[9] = individual OI mice of the 300 mg/kg group, in g (unit assumed)
[10] = 20 mg/kg, vs OVX vehicle treated control

With `CN(C)C1CN(C2CCc3cccc(F)c32)CC1c1ccc(N2CCN(S(C)(=O)=O)CC2)cc1` (stereo not drawn) [A-395, 1-(7-fluoro-2,3-dihydro-1H-inden-1-yl)-N,N-dimethyl-4-[4-(4-methylsulfonylpiperazin-1-yl)phenyl]pyrrolidin-3-amine] the “H3K27me3 (western blotting)” value (H3K27me3 in MC3T3 cells) was “reduced H3K27me3 in a concentration-dependent manner”, the “osteogenic differentiation (osteogenic genes, alizarin red staining)” value (MC3T3 cells) was “stimulates osteogenesis; also recorded: more potent at stimulating osteogenic differentiation” and the bone surface density (OI mice; 100 mg/kg) was “increase”. The “bone surface to volume ratio” value (OI mice; 100 mg/kg) was “decrease”, the intersection surface (OI mice; 100 mg/kg) was “no change” and the trabecular number (OI mice; 100 mg/kg) was “increase”. For the same molecule, the trabecular pattern (OI mice; 100 mg/kg) was “decrease”, the trabecular thickness (OI mice; 100 mg/kg) was “increase” and the “bone formation within the femurs (μCT)” value (OI mice; 100 mg/kg SC twice weekly) was “robust bone formation”. The bone surface (OI mice; 100 mg/kg, vs vehicle) was “increase”, the trabecular bone (OI mice; 100 mg/kg, vs vehicle) was “increase in trabecular bone” and the bone volume (OI mice; [6]) was “increased”. For the same molecule, the “percent bone per volume” value (OI mice; [6]) was “increased”, the tissue surface (OI mice; [6]) was “increased” and the tissue volume (OI mice; [6]) was “increased”. For the same molecule, the “bone surface to volume ratio” value (OI mice; 300 mg/kg) was “unchanged”, the intersection surface (OI mice; 300 mg/kg) was “down” and the trabecular number (OI mice; 300 mg/kg) was “decrease”. The trabecular pattern (OI mice; 300 mg/kg) was “slight decrease”, the trabecular thickness (OI mice; 300 mg/kg) was “slight decrease” and the “bone mineralization (μCT)” value (OI mice; 300 mg/kg SC twice weekly) was “loss of bone mineralization”. The bone density (OI mice; 300 mg/kg, FIG. 11A) was “down”, the trabecular bone (OI mice; 300 mg/kg, vs vehicle) was “loss of trabecular bone” and the bone surface (OI mice; [7]) was “decrease and down”. For the same molecule, the bone volume (OI mice; [7]) was “decreased”, the “percent bone per volume” value (OI mice; [7]) was “decreased” and the tissue volume (OI mice; [7]) was “increased”. The “toxicity to the mouse” value ([1]; OI mice, 300 mg/kg SC twice weekly, 5 weeks) was “toxic”, the “weight (change vs vehicle)” value ([1]; OI mice, 300 mg/kg or 100 mg/kg, after 5 weeks of treatment, vs vehicle) was “no significant changes” and the “Weigh at 3 weeks” value [1, 8] was 10.5 and 10.2 and 9.6. The “Weight at 5 weeks” value [1, 8] was 21.3 and 21.6 and 19.9, the “Weigh at 3 weeks” value [1, 9] was 11.1 and 11.9 and 14.0 and the “Weight at 5 weeks” value [1, 9] was 20.9 and 22.6 and 24.0. For the same molecule, the “Weight at 10 weeks” value ([1]; 100 mg/kg, after 5 weeks of treatment, 100 mg/kg) was 26.5 (2×) and 28.0, the “Weight at 10 weeks” value ([1]; 300 mg/kg, after 5 weeks of treatment, 300 mg/kg, in g (unit assumed)) was 26.6 and 27.8 and 29.0 and the “bone formation (μCT)” value (G610C mice [2]; 50 mg/kg SC twice a week) was “increase in bone formation”. The “bone formation (μCT)” value (G610C mice [2]; 100 mg/kg SC twice a week) was “increase in bone formation”, the “bone (μCT) vs controls” value (G610C mice [2]; 300 mg/kg SQ twice a week) was “less bone than controls” and the “health of treated mice at end of protocol” value (G610C mice [2]; 300 mg/kg SQ twice a week) was “losing weight and appeared sickly”. The “stiffness (three-point bending)” value (G610C mice [3]; 50 mg/kg SC twice a week) was “improved stiffness” and the “stiffness (three-point bending)” value (G610C mice [3]; 100 mg/kg SC twice a week) was “improved stiffness”.

With `CS(=O)(=O)c1ccc(-c2cnc(NCc3ccco3)n3cnnc23)cc1` [EED226, n-(2-furanylmethyl)-8-[4-(methylsulfonyl)phenyl]-1,2,4-triazolo[4,3-c]pyrimidin-5-amine] the “H3K27me3 (western blotting)” value (H3K27me3 in MC3T3 cells) was “reduced H3K27me3 in a concentration-dependent manner”.

With `Cc1ncccc1-c1cnc(NCc2c(F)ccc3c2CCO3)n2cnnc12` [MAK683, N-[(5-fluoro-2,3-dihydro-1-benzofuran-4-yl)methyl]-8-(2-methylpyridin-3-yl)-[1,2,4]triazolo[4,3-c]pyrimidin-5-amine] the bone density (G610C mice [4]; 20 mg/kg) was “significant increase”, the trabecular structure (G610C mice [4]; 20 mg/kg) was “significant increase” and the bone density (G610C mice [4]; 50 mg/kg) was “significant increase”. The trabecular structure (G610C mice [4]; 50 mg/kg) was “significant increase”, the “bone parameters (μCT) vs controls” value (G610C mice [4]; 20 mg/kg SQ twice a week) was “improvement in essentially all bone parameters” and the “bone parameters (μCT) vs controls” value (G610C mice [4]; 50 mg/kg SQ twice a week) was “improvement in many bone parameters”. For the same molecule, the “bone loss (μCT)” value (OVX mice; 20 mg/kg SQ twice weekly, 3 weeks) was “prevented bone loss”, the bone density (OVX mice; [10]) was “significant intention” and the trabecular number (OVX mice; [10]) was “significant intention”. The “bone density (μCT)” value (G610C mice [5]; 5 mg/kg SQ twice a week) was “possible minor improvement”, the “bone density (μCT)” value (G610C mice [5]; 10 mg/kg SQ twice a week, 10 mg/kg) was “visual improvement; also recorded: significant increase” and the trabecular structure (G610C mice [5]; 10 mg/kg) was “significant increase”. For the same molecule, the “bone density (μCT)” value (G610C mice [5]; 20 mg/kg SQ twice a week, 20 mg/kg) was “visual improvement; also recorded: significant increase”, the trabecular structure (G610C mice [5]; 20 mg/kg) was “significant increase” and the “bone density (μCT)” value (G610C mice [5]; 50 mg/kg SQ twice a week) was “possible minor improvement”. The “bone parameters (μCT) vs controls” value (G610C mice [5]; G610C mice, 50, 20, 10, or 5 mg/kg, FIG. 17B-M) was “improvement in many bone parameters”, the bone quality parameters (G610C mice [5]; 5 mg/kg) was “trend in increased” and the bone quality parameters (G610C mice [5]; 50 mg/kg) was “trend in increased”.
